# Laboratory results: article PMC5976665, “Identification of a peptide for folate receptor alpha by phage display and its tumor targeting activity in ovary cancer xenograft” (Scientific Reports, 2018)
# Residues, ends and D or L forms follow the SMILES beside them. No end group written: not given here. *: point of attachment. FITC = O=C1OC2(c3ccc(O)cc3Oc3cc(O)ccc32)c2ccc(NC(=S)*)cc21
# Columns and labels:
# [1] = tested on: SKOV3 xenograft tumor; assay: Tumor targeting of FITC conjugated synthetic peptide by fluorescence imaging; type: in vivo, nude mouse; details: 200 μL of 10 mg/mL in PBS i.v., 2 h circulation, liver, lung, kidney, heart, ovary
# Procedure: FITC conjugated peptide C7 was chemically synthesized by GL Biochem (Shanghai, China) and purified by high-performance liquid chromatography with more than 95% purity and confirmed by mass spectrometry. The FITC conjugated peptide was evaluated in tumor bearing mice for its tumor targeting capability. The peptide was dissolved in PBS at a concentration of 10 mg/mL and 200 μL was injected intravenously into a tumor bearing nude mouse. After 2 h circulation, tumor and other organ tissues (liver, lung, kidney, heart, and ovary) were harvested and analyzed using Carestream IS4000 fluorescence imaging system.
# [2] = tested on: SKOV3 cells; assay: Cell internalization by confocal microscopy, SKOV3 cells; type: cell-based, human; details: FITC conjugated peptide 200 μg/mL, 4 hours at 37 °C
# Procedure: To visualize internalization of synthesized peptide C7 into cells, SKOV3 or HepG2 cells were seeded in 24 well plates (10^5 cells/well) containing coverslips and incubated for 24 hours in RPMI 1640 medium with 10% FBS. FITC conjugated peptide C7 or PB-TUP[24] (VHWDFRQWWQPS) (200 μg/mL) was incubated with the cells for 4 hours at 37 °C. After incubation, the cells were washed once with PBS and fixed in 4% paraformaldehyde for 10 min. Cells were then washed three times with PBS and stained with DAPI for 20 min at room temperature. Internalized fluorescent signals were imaged with a Zeiss LSM800 confocal microscope.
# [3] = tested on: SKOV3 cells; assay: Cell-based ELISA of phage clones on SKOV3 cells; design: species or system human; details: FRα positive cells, fixed; 10^10 phages per well, 37 °C 2 h, HRP anti-M13
# From the text: (§1) Phage clones with high ELISA value were further tested by cell-based ELISA. SKOV3 (human epithelial ovarian cancer cell) is a FRα expressing cell line and was used to evaluate the binding of selected phage clones to natural FRα protein on cell surface. HEPG2 (Human Liver Carcinoma Cell) without FRα expressing was used as a negative control. Both cell lines were purchased from Shanghai Cell Biology Institutes (Academia Sinica, Shanghai, China) and maintained in RPMI 1640 Medium with 10% fetal bovine serum and antibiotics. The presence or absence of FRα expression of the two cell lines were confirmed by flow cytometry described in 2.4. The cells were cultured in 96-well plate to 80% confluence and fixed with 4% paraformaldehyde. After blocking with 3% BSA for 2 h, 10^10 individual phages were added to each well and incubated at 37 °C for 2 h. Then the plate was washed with PBST for three times and cell-bound phage was detected with HRP-conjugated anti-M13 IgG (1:10000) as described in phage ELISA.
# [4] = tested on: HepG2 cells; assay: Cell-based ELISA of phage clones on HepG2 cells; design: species or system human; details: FRα negative cells, fixed; 10^10 phages per well, 37 °C 2 h, HRP anti-M13
# From the text: as §1
# [5] = tested on: SKOV3 cells; assay: Flow cytometry of phage clone binding to SKOV3 cells; type: cell-based, human; details: 4 °C 1 h, mouse anti-M13 and FITC goat anti-mouse antibody
# Procedure: SKOV3 cells were collected and suspended in 2% FCS-PBS medium at 1 × 10^6 cells/mL. Purified phage clones were incubated individually with the cells at 4 °C for 1 h. The cells were washed twice with 2% FCS-PBS by 5 min centrifugation at 300 g. Mouse anti-M13 antibody was diluted with 2% FCS-PBS (1:400) and incubated with cells for 30 min at 4 °C. After washing, the cells were stained for 30 min at 4 °C with FITC conjugated goat anti-mouse antibody (Fcmacs, Inc., Nanjing). Cells were analyzed as described above.
# [6] = tested on: SKOV3 implanted tumor; assay: In vivo homing of phage clones in SKOV3 xenografts; design: species or system Balb/c nude mice; details: 2 × 10^11 phages i.v., circulated 15 min, phage titration per gram of tissue, n = 3
# Procedure: Female Balb/c nude mice aged 6–8 weeks were purchased from the Yangzhou University Animal Center. All the animal studies were performed in compliance with the National Institutes of Health Guide for the Care and Use of Laboratory Animals and approved by IACUC (Institutional Animal Care and Use Committee of China Pharmaceutical University). The authors confirm that experiments involving laboratory animals adhered to the ethical standards of National Institutes of Health Guide and China Pharmaceutical University. The laboratory animals were used under the experimental animal production license 2121922. All animals were housed in a controlled environment (25 °C; 12 h light-dark cycle), with water and food provided freely. 2 × 10^6 SKOV3 cells were subcutaneously injected into the left flank of mice to generate epithelial ovarian cancer xenografts. 2 × 10^11 individual purified phage clones were injected intravenously and circulated for 15 min. After anesthetized with 10 mg/kg […] (5% w/v), the mice were perfused through the heart. Then, the tumor and main organs (liver, lung, kidney, heart and ovary) were harvested, weighed and homogenated. The homogenated tissues were washed, and lysed with 1% NP40. Bound phages were recovered by elution and titrated as described. The distribution of phages was calculated as phages per gram.
# [7] = biological target: T1, Native human folate receptor alpha (FRα) on SKOV3 cells (human (endogenous in SKOV3), UniProt P15328 25-234); assay: flow cytometry on cells; purified phage clones incubated with SKOV3 cells (1 × 10^6 cells/mL, 2% FCS-PBS) at 4 °C for 1 h; mouse anti-M13 antibody and FITC goat anti-mouse antibody; M13KE as negative control; details: one partner purified
# T1 construct: folate receptor alpha, endogenous on the surface of SKOV3 human epithelial ovarian cancer cells; also called natural FRα protein on cell surface; source: endogenous, on SKOV3 cells
# [8] = biological target: T2, Recombinant human folate receptor alpha (FRα) (human, UniProt P15328 25-234); assay: MST; serial dilutions of FITC conjugated C7 in PBS pH 7.4 mixed with purified FRα protein (1 μg/mL), 5 min at room temperature; Monolith NT.115, standard capillaries; KD from the Hill formula; details: both partners purified
# T2 construct: folate receptor alpha, human; also called recombinant folate receptor α; purified FRα protein; source: E. coli system, purified with a Ni-column
# T2 sequence (P15328 25-234): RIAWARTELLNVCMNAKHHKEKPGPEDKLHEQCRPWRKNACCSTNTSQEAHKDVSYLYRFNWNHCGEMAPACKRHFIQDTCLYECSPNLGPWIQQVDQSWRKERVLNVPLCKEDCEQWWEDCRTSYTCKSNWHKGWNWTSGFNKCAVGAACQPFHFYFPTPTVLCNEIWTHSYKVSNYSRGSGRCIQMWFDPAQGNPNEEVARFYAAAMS
# T1 sequence (P15328 25-234): as above
Molecule,binding to SKOV3 cells in cell-based ELISA [3],binding to HepG2 cells in cell-based ELISA [4],specific binding to SKOV3 cells (FITC+ cells) [5] [%],percent specific binding to SKOV3 cells [7] [%],also measured
"CSCC[C@H](NC(=S)Nc1ccc2c(c1)C(=O)OC21c2ccc(O)cc2Oc2cc(O)ccc21)C(=O)N[C@@H](Cc1c[nH]cn1)C(=O)N[C@H](C(=O)N[C@@H](C)C(=O)N1CCC[C@H]1C(=O)NCC(=O)N[C@@H](Cc1c[nH]c2ccccc12)C(=O)NCC(=O)N[C@@H](Cc1ccc(O)cc1)C(=O)N[C@@H](CCCNC(=N)N)C(=O)N[C@@H](CC(C)C)C(=O)N[C@@H](CO)C(=O)O)[C@@H](C)O [C7, Met-His-Thr-Ala-Pro-Gly-Trp-Gly-Tyr-Arg-Leu-Ser] ({FITC}-MHTAPGWGYRLS-OH; N-terminus and C-terminus assumed)",–,–,–,–,fluorescence signal in the tumor compared with other organs [1]: significantly stronger compared to that in other organs except liver and kidney; internalization into SKOV3 cells [2]: can be internalized
"GALLPSMNKGHW [phage clone B8, phage clone displaying Gly-Ala-Leu-Leu-Pro-Ser-Met-Asn-Lys-Gly-His-Trp]",highest binding,relatively low binding,–,–,–
"MHTAPGWGYRLS [phage clone C7, phage clone from Ph.D.-12 library displaying the C7 dodecapeptide]",highest binding,relatively low binding,51.2,–,phage enrichment in tumor tissue relative to M13KE phage in tumor [6]: 49 fold; phage titer in tumor relative to normal ovary [6]: 190 fold
"MNPYPRTPWPHV [phage clone G12, phage clone displaying Met-Asn-Pro-Tyr-Pro-Arg-Thr-Pro-Trp-Pro-His-Val]",highest binding,relatively low binding,41.8,–,–
"YTNPYYSSHTRN [phage clone G8, phage clone displaying Tyr-Thr-Asn-Pro-Tyr-Tyr-Ser-Ser-His-Thr-Arg-Asn]",highest binding,relatively low binding,36.0,–,–
"MHTAPGWGYRLS (dodecapeptide selected by phage display; printed in three-letter code; the synthetic FITC peptide is m18; also called C7 phage clone; source: M13 phage clone from the Ph.D.-12 library, amplified in E. coli ER2738; purified phage for flow cytometry) [Phage clone C7]",–,–,–,51.2,–
"GALLPSMNKGHW (dodecapeptide selected by phage display; printed in three-letter code; source: M13 phage clone from the Ph.D.-12 library, amplified in E. coli ER2738; purified phage for flow cytometry) [Phage clone B8/H1/G4]",–,–,–,31.8,–
"MNPYPRTPWPHV (dodecapeptide selected by phage display; printed in three-letter code; source: M13 phage clone from the Ph.D.-12 library, amplified in E. coli ER2738; purified phage for flow cytometry) [Phage clone G12]",–,–,–,41.8,–
"YTNPYYSSHTRN (dodecapeptide selected by phage display; printed in three-letter code; source: M13 phage clone from the Ph.D.-12 library, amplified in E. coli ER2738; purified phage for flow cytometry) [Phage clone G8]",–,–,–,36,–
"{FITC}-MHTAPGWGYRLS (dodecapeptide of phage clone C7, chemically synthesized; printed in three-letter code; also called C7 peptide; synthesized peptide C7; source: synthetic peptide (GL Biochem, Shanghai; HPLC, more than 95% purity)) [FITC conjugated peptide C7]",–,–,–,–,Kd [8]: 300 nM
